Results taken from paper PMC3632407 (Chemical communications (Cambridge, England), 2013).
Like-named read-outs stand apart in the source and are kept apart here. Where a SMILES comes first, the peptide text is derived from it.

What was measured:
Type in all cases: cell-based
E.coli = tested on: E.coli
S. nterica = assay: Minimal inhibitory concentration for bacteriocidal activity; conditions: MIC; strains in Supp. Info
MRSA = tested on: MRSA
P. aeruginosa = tested on: P. aeruginosa
K. pneumoniae = tested on: K. pneumoniae
E. faecium = tested on: E. faecium
A. baumanii = tested on: A. baumanii

Compound | Minimal inhibitory concentration for bacteriocidal activity, E.coli (E.coli) [µM] | Minimal inhibitory concentration for bacteriocidal activity, S. nterica (S. nterica) [µM] | Minimal inhibitory concentration for bacteriocidal activity, MRSA (MRSA) [µM] | Minimal inhibitory concentration for bacteriocidal activity, P. aeruginosa (P. aeruginosa) [µM] | Minimal inhibitory concentration for bacteriocidal activity, K. pneumoniae (K. pneumoniae) [µM] | Minimal inhibitory concentration for bacteriocidal activity, E. faecium (E. faecium) [µM] | Minimal inhibitory concentration for bacteriocidal activity, A. baumanii (A. baumanii) [µM] | Minimal inhibitory concentration for bacteriocidal activity, E.coli (E.coli; MIC, strains in Supp. Info) [µM] | Minimal inhibitory concentration for bacteriocidal activity, MRSA (MRSA; MIC, strains in Supp. Info) [µM] | Minimal inhibitory concentration for bacteriocidal activity, P. aeruginosa (P. aeruginosa; MIC, strains in Supp. Info) [µM] | Minimal inhibitory concentration for bacteriocidal activity, K. pneumoniae (K. pneumoniae; MIC, strains in Supp. Info) [µM] | Minimal inhibitory concentration for bacteriocidal activity, E. faecium (E. faecium; MIC, strains in Supp. Info) [µM] | Minimal inhibitory concentration for bacteriocidal activity, A. baumanii (A. baumanii; MIC, strains in Supp. Info) [µM]
N=C(N)NCCC[C@H](NC(=O)[C@H](CS)NC(=O)[C@H](Cc1ccc(O)cc1)NC(=O)[C@H](Cc1c[nH]c2ccccc12)NC(=O)[C@H](CCCNC(=N)N)NC(=O)[C@@H](N)Cc1c[nH]c2ccccc12)C(N)=O [Complex 1, WRWYCR-NH2] (H-WRWYCR-NH2) | 17 | 8 | 66 | 33 | 66 | 8 | 132 | – | – | – | – | – | –
NC[C@H]1O[C@H](O[C@H]2[C@H](O)[C@@H](O[C@H]3O[C@H](CO)[C@@H](O)[C@H](N)[C@H]3O)[C@H](N)C[C@@H]2N)[C@H](O)[C@@H](O)[C@@H]1O [kanamycin] | – | 1 | – | – | – | – | – | 8 | 264 | 33 | 66 | >264 | >264
